# Entries after “also recorded” stand apart in the source; their conditions may differ. Like-named read-outs stand apart in the source and are kept apart here.
# Columns and labels:
# [1] = biological target: T1, N-Myc-Max heterodimer (Homo sapiens, UniProt P04198+P61244); experiment: Proximity ligation assay (PLA) in LNCaP-NMYC cells; format: cell-based; settings: 10 µM, 72 h
# T1 construct: expressed in transfected cells; host or cells: LNCaP-NMYC cells (gift from David Rickman)
# Procedure: (§1) To confirm that 70619 could disrupt the binding of N-Myc-Max DBD to DNA, we performed a bio-layer interferometry (BLI) assay where we immobilized biotinylated E-box sequence on streptavidin sensors, and we evaluated recombinant N-Myc-Max binding to the DNA in the presence of increasing concentrations of VPC-70619. […] We observed a similar number of interactions when comparing the ratio of signal per nuclei in the presence or absence of the compound.
# LNCaP-NMYC cells were seeded on coverslips at a density of 10^5 cells per well of a 6-well plate. After incubation for 24 h the cells were treated with 10 μM of either 10074-G5 or 70619 for 72 h. The coverslips were fixed with methanol:acetone (3:1) and incubated with primary antibodies n-Myc Antibody (NMYC-1) (Novus Biologicals NB200-109) (Littleton, CO, USA) and MAX Antibody (C-17) (Santa Cruz sc-197) (Dallas, TX, USA) overnight at 4 °C. PLA was conducted using the Duolink In Situ Detection Reagents Red kit (Sigma DUO92008) according to the manufacturer’s protocol. The coverslips were then mounted on slides with VECTASHIELD mounting media with DAPI, and images were taken on ZEISS 780 confocal microscope at 40× magnification.
# [2] = Microsomal stability assay; format: in vitro ADME, Mouse; settings: mouse liver microsomes, 1 µM compound
# Procedure: A microsomal stability assay was performed using the Corning Gentest NADPH Regenerating System (Corning, #451220/41200) (Corning, NY, USA). Mouse liver microsomes (MLM) (Xenotech, M1000) (Kansas City, KS, USA) and compounds were diluted to a final concentration of 0.15 mg/mL and 1 μM respectively. These were prepared into a 500 μL solution with 100 mM potassium phosphate buffer (pH = 7.4). Imipramine was used as a control. NADPH solutions A and B were mixed in a 5:1 ratio, and 24 μL of the NADPH was added to each of the MLM/compound samples at 30 s intervals. At time points 10, 20, and 45 min, 100 μL of reaction was added to the stopping solution. Samples were centrifuged at 18,000× g and incubated at 4 °C for 10 min. Samples were then loaded onto a LC-MS 96-well plate for analysis.
# [3] = tested on: N-Myc-Max transcription activity (LNCaP-NMYC cells); experiment: Myc transcription assay (Cignal Myc reporter, luciferase) in LNCaP-NMYC cells; format: cell-based; settings: for IC50: Homo sapiens, LNCaP, Table 1, transcriptional assay in LNCaP cells overexpressing N-Myc, read-out: IC50; for transcription inhibition activity (in words): LNCaP-NMYC, screened at 10 µM and 5 µM
# Procedure, shortened: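 LNCaP-NMYC cells transfected with Cignal Myc luciferase reporter were treated 24 h with compounds at 5 µM or 10 µM. Read-out: inhibition of N-Myc-Max-driven reporter luminescence.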
# [4] = tested on: N-Myc-Max transcription activity (LNCaP-NMYC cells); experiment: as above; format: cell-based
# [5] = tested on: N-Myc-Max binding to DNA E-box; experiment: Biolayer interferometry (BLI), N-Myc-Max binding to biotinylated E-box DNA; format: biochemical; settings: BLI, 0, 50, 100, 200 µM
# Text: as §1
# The bHLHLZ domain of N-Myc (amino acids 309–394) and Max (amino acids 12–93) protein sequences were cloned into pETDuet with an N-terminal 6×His. pETDuet-His-NMyc-Max was transformed and expressed in E. coli BL21 and induced with 0.5 mM isopropyl-β-D-thiogalactopyranoside (IPTG) at 16 °C overnight. The cultures were lysed by sonication and combined for purification by immobilized metal ion chromatography (IMAC) with nickel-nitrilotriacetic acid (Ni-NTA) resin. The bound proteins were eluted from the column with 20 mM Tris, pH = 8, 500 mM NaCl, 5% glycerol, 300 mM imidazole, 5 mM βMe, and 0.1 mM PMSF. Size exclusion chromatography with Superdex 75 was used to increase the purity of the N-Myc-Max protein sample. The purified protein complex was used in subsequent BLI and MST experiments.
# Biotinylated-duplex DNA (Forward: 5′ Biotin-[…], Reverse: […]) was bound to the super-streptavidin (SSA) ForteBio Sensor in the assay buffer [20 mM Tris pH = 8, 150 mM NaCl, 5% glycerol, and 0.2 mM TCEP]. The protein solution was mixed with the serially diluted compound (70619) to a final concentration of 0.1 mg/mL of protein and 200 μM, 100 μM, and 50 μM for the compound. Sample containing N-Myc-Max protein alone was used as a control.
# [6] = tested on: HO15.19 cells; experiment: Cell viability counter-screen (CellTiter-Glo), Myc-negative HO15.19; format: cell-based; settings: counter-screen
# Procedure: The 54 compounds were tested at 10 µM for their inhibition of the IMR32 human neuroblastoma cell line, in which the MYCN gene is amplified and actively expressed (Table 3). HO15.19 cell line (Myc-negative) was used in parallel as a compound specificity control.
# Viability of N-Myc positive (IMR32and NCI-H660) and negative (HO15.19) cells were determined using the CellTiter-Glo Luminescent Cell Viability Assay (Promega cat. G7570) (Madison, WI, USA). Cells were seeded into a 96-well white plate with a clear bottom: 10,000 cells per well for the IMR32 cells cultured in EMEM supplemented with 10% FBS, 2000 HO15.19 cells per well in Eagle’s minimum essential medium (EMEM) supplemented with 10% FBS, and 2000 cells per well for the NCI-H660 neuroendocrine cells cultured in RPMI supplemented 5% FBS, 1% Insulin-Transferrin-Selenium (Thermo Fisher, 41400-045), 10nM b-estradiol (Sigma, E8875), 10nM hydrocortisone (Sigma H0888) and 1% matrigel. Following 24 h incubation, the cells were treated with serial dilutions of the derivatives along with the respective parental compound starting at 25 μM for 72 h. Cell Titer Glo was added to each well at a ratio of 1:1 and incubated on a shaker at RT for 2 min. Luminescence and IC50 was measured with the TECAN InfiniteM200 plate reader (Männedorf, Switzerland).
# [7] = Pharmacokinetics after IP and PO dosing; format: in vivo, male Balb/c mice; settings: 10 mg/kg; for Tmax: 75:25 PG/PEG 400 formulation; for Cmax: 70551 in 75:25 PG/PEG 400, 70619 in 20:80 Kolliphor EL
# Procedure: In order to characterize VPC-70619 as a drug candidate against N-myc, its pharmacokinetic (PK) characteristics were evaluated in Balb/c mice following intraperitoneal (IP) and peroral (PO) administrations. As presented in Figure 5, we determined the PK properties of VPC-70619 and compared it to the parental molecule, VPC-70551. […] The clearance of 70551 for PO delivery was extremely slow, and we could not determine the T1/2 in the experimental conditions used for this assay. […] Therefore, VPC-70619 was deemed to have appropriate efficacy in vivo, and a better pharmacokinetic profile due to higher bioavailability for both oral and intraperitoneal administration.
# Bienta Enamine Biology Services (Kyiv, Ukraine) conducted PK studies according to the Enamine PK study protocols and Institutional Animal Care and Use Guidelines. The PK studies were reviewed and approved by the Bienta Animal Care and Use Committee (BACUC) under the project identification codes PK-VPC-112618 (approved 17 December 2018) and PK-VPC-101119 (approved 21 October 2019), for VPC-70551 and […], respectively. Evaluation of 70619 and 70551 was conducted in male Balb/c mice through intraperitoneal (IP) and peroral (PO) administration. Measurements were taken at six time points: 5, 15, 60, 120, 240, and 360 min for IP; 15, 30, 60, 120, 240, and 480 min for PO. Four mice were included in each treatment group for each time point; one mouse each for IP and PO was included as a control. Initial target administration for both IP and PO was 10 mg/kg dose level, 2 mg/mL dose concentration, and 5 mL/kg dose volume. Concentration of the compounds was evaluated in the plasma samples using an LC-MS/MS system.
# T1 sequence (P04198 whole entry): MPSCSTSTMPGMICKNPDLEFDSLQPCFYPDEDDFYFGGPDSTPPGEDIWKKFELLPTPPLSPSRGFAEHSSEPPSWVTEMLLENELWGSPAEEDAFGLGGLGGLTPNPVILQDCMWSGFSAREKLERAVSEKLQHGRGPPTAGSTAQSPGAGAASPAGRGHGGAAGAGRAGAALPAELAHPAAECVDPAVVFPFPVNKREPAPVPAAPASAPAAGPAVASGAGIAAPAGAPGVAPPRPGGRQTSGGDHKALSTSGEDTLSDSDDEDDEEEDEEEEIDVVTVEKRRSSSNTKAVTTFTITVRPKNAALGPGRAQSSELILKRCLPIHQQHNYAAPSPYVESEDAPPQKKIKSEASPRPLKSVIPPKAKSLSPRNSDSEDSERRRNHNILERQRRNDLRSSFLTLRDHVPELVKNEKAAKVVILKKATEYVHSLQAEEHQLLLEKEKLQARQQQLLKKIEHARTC
# T1 sequence (P61244 whole entry): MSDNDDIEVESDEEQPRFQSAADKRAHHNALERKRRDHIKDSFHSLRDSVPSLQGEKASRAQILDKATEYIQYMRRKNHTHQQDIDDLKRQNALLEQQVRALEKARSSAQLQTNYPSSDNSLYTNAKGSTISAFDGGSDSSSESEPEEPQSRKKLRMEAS
Compound,IC50 [3],inhibition at 25 µM [4],further results
"O=[N+]([O-])c1ccc(Nc2ccccc2-c2ccccc2)c2nonc12 [10074-G5, reference compound]",,,effect on N-Myc-Max heterodimer interactions (in words) [1]: significant decrease in the number of interactions; also recorded: the number of interactions is reduced; microsomal half-life (T1/2) [2]: 0.05 h
O=C(NNc1ccc(C(F)(F)F)cc1[N+](=O)[O-])c1cnccn1 [compound 70127],1 µM,106%,transcription inhibition activity (in words) [3]: strong Myc inhibitory activity; disruption of DNA binding to (N-)Myc-Max (in words) [5]: weakly disrupts DNA binding
O=C(NCc1cnn(Cc2ccccc2)c1)[C@@H]1COc2ccccc2O1 [compound 70215],20 µM,92%,
O=C(CCc1c[nH]c2ccccc12)Nc1nc2ccccc2[nH]1 [compound 70223],10 µM,103%,
C[C@H](CCc1ccccc1)NC(=O)[C@H]1CCCN(C(=O)CCc2c[nH]c3ccccc23)C1 [compound 70314],15 µM,93%,
CC[C@@H]1Oc2cc(S(=O)(=O)N(C)CC(=O)N(C)Cc3ccccc3)c(C)cc2NC1=O [compound 70381],20 µM,74%,
N#Cc1ccc(NNC(=O)c2ccc(C(F)(F)F)cc2)c(C(F)(F)F)c1 [compound 70551],4 µM,98%,"half-life ([7]; male, Balb/c, mouse, plasma, ip, read-out: plasma half-life (T1/2) IP): 5.53 h; Tmax ([7]; male, Balb/c, mouse, plasma, IP, read-out: Tmax IP (converted)): 1 h; Cmax ([7]; male, Balb/c, mouse, plasma, IP, read-out: Cmax IP): 6220 ng/mL; Tmax ([7]; male, Balb/c, mouse, plasma, PO, read-out: Tmax PO (converted)): 8 h; Cmax ([7]; male, Balb/c, mouse, plasma, PO, read-out: Cmax PO): 2600 ng/mL; adverse effects / signs of toxicity in PK animals ([7]; single dose IP or PO): No obvious adverse effects; microsomal half-life (T1/2) ([2]; listed as VPC-70551): 2.33 h; half-life at 1 μM ([2]; mouse, pH 7.4, mouse liver microsomes, read-out: microsomal half-life (T1/2)): 2.35 h"

# Second part, led by results:
IC50 [3],Compound,inhibition at 25 µM [4],further results
20 µM,O=C(CCN1C(=O)/C(=C\c2ccccc2)SC1=S)NCCc1c[nH]c2ccccc12 [compound 70388],77%,
9 µM,Cc1cccc(-c2cc(C(=O)Nc3ccc(S(=O)(=O)N4CCCCC4)cc3)n[nH]2)c1O [compound 70390],97%,
10 µM,Fc1ccccc1CNC(=S)Nc1cccc(C(F)(F)F)c1 [compound 70465],92%,
5 µM,FC(F)(F)c1cc(Br)cc(NC(=S)NCc2cccs2)c1 [compound 70495],100%,
2 µM,O=C(Nc1cccc(C(F)(F)F)c1)Nc1cccc(C(F)(F)F)c1 [compound 70511],102%,cytotoxicity in Myc-negative HO15.19 (in words) [6]: highly cytotoxic profile; transcription inhibition activity (in words) [3]: promising inhibitory activity

# Source: PMC8910697, “Development of VPC-70619, a Small-Molecule N-Myc Inhibitor as a Potential Therapy for Neuroendocrine Prostate Cancer” (International Journal of Molecular Sciences, 2022)
